From patent US20150125403A1, “PERSONAL CARE AND COSMETIC COMPOSITIONS COMPRISING RENEWABLY-BASED, BIODEGRADABLE 1,3-PROPANEDIOL” (DuPont Tate & Lyle Bio Products Company, LLC, priority 2006, published 2015)

Tests used:
human skin [1] = assay: second human skin patch test; type: in vivo; conditions: 25, 50, and 75% (pH 7)
Description: (§1) Based on these studies PDO is not expected to be a skin irritant or sensitizer in humans.

[2] = viscosity of the composition; type: physicochemical; conditions: cosmetic emulsion of Example 1 made with the named glycol instead of Bio-PDO
Experimental: Brookfield Model RV−Spindle 5 at 20 rpm for 1 minute (factor×200)
Brookfield Model RV−Spindle T at 5 rpm for 1 minute (factor×10,000)

human skin [3] = assay: human skin patch test with approximately 100 subjects; type: in vivo; conditions: 5, 25, and 50% PDO
Description: as §1

viscosity of the cosmetic emulsion containing the glycol [2]	SMILES	patch test irritation and cumulative irritation of human skin (human skin [1])	skin reactions indicative of irritation or sensitization (human skin [3])
12600 cps	CC(O)CO (centres unmarked) [propylene glycol, 1,2-propanediol]	patch test irritants and cumulative irritants for human skin	
	OCCCO [PDO, 1,3-propanediol]		did not cause any skin reactions indicative of irritation or sensitization
9600 cps	CC(CO)CO [2-methyl-1,3-propanediol]		

SMILES	viscosity of the cosmetic emulsion containing the glycol [2]	patch test irritation and cumulative irritation of human skin (human skin [1])	skin reactions indicative of irritation or sensitization (human skin [3])
CC(O)CCO (centres unmarked) [1,3-butylene glycol]	6000 cps		
